Measured values published in patent US11439618B2, “Compositions and methods for lowering triglycerides” (Amarin Pharmaceuticals Ireland Limited, priority 2009, dated 2022).

Tested on: subjects with Age-Associated Memory Impairment
Test: CDR computerized cognitive test battery, 6-week study in Age-Associated Memory Impairment
Format: in vivo, human
Details: for Quality of Episodic Secondary Memory, LS mean difference vs placebo: overall; for Self-Rated Contentment, ANCOVA: p<0.001
Protocol: A single-center, 6-week, double-blind, randomizes, parallel-group, placebo-controlled, dose-ranging pilot study was performed to evaluate the efficacy, tolerability, and safety of >96% ethyl-EPA in subjects with subjective and objective memory impairment according to generally accepted criteria for Age-Associated Memory Impairment (“AAMI”). The primary objective of the study was to determine the effect of >96% ethyl-EPA 1 g, 2 g, and 4 g daily, compared to placebo, on cognitive performance in subjects with AAMI.
The population for this study was men and women between ages 50 and 70 with self-reported complaints of memory loss, subjective and objective cognitive impairment with a score of at least one standard deviation below that of the mean for age-matched elderly population as determined by the total score of between 13 and 20 from the Paired Associated Learning (“PAL”) subset of the Wechsler Memory Scale, evidence of adequate intellectual function as determined by a scaled score of at least 9 (raw score of at least 32) on the Vocabulary subtest of the Wechsler Adult Intelligence Scale and absence of dementia as determined by a score of 24 or higher on the Mini-Mental State Examination (“MMSE”).
Ninety-four subjects were randomized into one of six groups: 1 g E-EPA daily (n=23), 2 g E-EPA daily (n=24), 4 g E-EPA daily (n=24), 1 g placebo daily (n=7), 2 g placebo daily (n=8), and 4 g placebo daily (n=8). E-EPA was provided as 500 mg soft gel capsules containing >96% E-EPA and 0.2% dl-α-tocopherol as an antioxidant. Placebo capsules contained 467 mg of liquid paraffin and 0.2% dl-a-tocopherol. Ninety-one subjects completed the study. Two subjects in the 2 g E-EPA group and one subject in the 2 g placebo group discontinued the study.
The study consisted of a screening visit, a training visit, and four study visits. At the screening visit, subjects' eligibility was determined through cognitive tests (verbal paired associated learning [PAL] subscale, vocabulary subtest, Memory Assessment Clinics Questionnaire [MAC-Q], mini mental state evaluation [MMSE] and MINI [mini international neuropsychiatric interview; sections 1 and 2 of Diagnostic and Statistical Manual of Mental Disorders, 4th Edition (DSM-IV) plus dysthymia]), haematology, clinical chemistry and 12-lead electrocardiogram (ECG). At the training visit, subjects were shown how to use the CDR computerized system. Subjects took study drug for 6 weeks and on Days 0, 14, 28 and 42, subjects underwent the CDR cognitive test battery.
A selection of tasks from the CDR computerized cognitive assessment system were administered at Visit 2 (training visit), Visit 3 (baseline), Visit 4 (Day 14), Visit 5 (Day 28) and Visit 6 (Day 42). Parallel forms of the tests were presented at each testing session. All tasks were computer-controlled, the information presented on high resolution monitors, and the responses recorded via a response model containing two buttons: one marked ‘no’ and the other ‘yes’. Five CDR composite scores were used as the primary/secondary outcome variables. The task titles were: • Word Presentation • Immediate Word Recall • Picture Presentation • Simple Reaction Time • Digit Vigilance • Choice Reaction Time • Spatial Working Memory • Numeric Working Memory • Delayed Word Recall • Word Recognition • Picture Recognition • Bond-Lader Visual Analogue Scales of Mood and Alertness • Screen, Using the Computer Mouse
Summary statistics were provided for the ITT and Study Per Protocol Populations separately for all composite scores, major and supportive variables. Summary statistics were performed for both the unadjusted and difference from baseline data (i.e. the difference from the time matched predose assessments on Day 0). Summary statistics were calculated by treatment, day and time-point. The summary statistics comprised n, mean, median, SD, standard error of mean (“SEM”), minimum and maximum values. […]

CC/C=C\C/C=C\C/C=C\C/C=C\C/C=C\CCCC(=O)OCC [Ethyl-EPA, all-cis eicosa-5,8,11,14,17-pentaenoic acid ethyl ester]
Continuity of Attention and Digit Vigilance Targets Detected, effect of treatment (ITT): no statistically significant effect of treatment | Immediate and Delayed Word Recall Accuracies, Word and Picture Recognition Sensitivity Indices, effect of treatment (ITT): no statistically significant effects of treatment | Quality of Episodic Secondary Memory, effect of treatment (ITT): no statistically significant effect of treatment | Self-Rated Alertness, effect of treatment (ITT): no statistically significant effect of treatment | Self-Rated Calmness, effect of treatment (ITT): no statistically significant effect of treatment | Self-Rated Contentment, LS mean difference to placebo (ITT): no statistically significant effects | Simple Reaction Time and Digit Vigilance Speed, effect of treatment (ITT): no statistically significant effects of treatment | Speed of Memory and subtasks Spatial and Numeric Working Memory Speeds, Word and Picture Recognition Speeds, effect of treatment (ITT): no statistically significant effects of treatment | Power of Attention, effect of treatment (ITT, 1, 2, 4 g daily vs placebo, ANCOVA): no statistically significant effect of treatment | Immediate Word Recall Accuracy, LS mean difference vs placebo (ITT, 1 g, Day 14, p=0.028): statistically significant decreases | Picture Recognition Speed, difference vs placebo (ITT, 1 g, Day 14 at AM 2, p=0.084): trends for benefits | Immediate Word Recall Accuracy, LS mean difference vs placebo (ITT, 1 g, Day 14 at PM 2, p=0.020): statistically significant decreases | Word Recognition Sensitivity Index, LS mean difference vs placebo (ITT, 1 g, Day 28, p=0.024): statistically significant decreases | Picture Recognition Speed, difference vs placebo (ITT, 1 g, Day 28 at AM 1, p=0.085): trends for benefits | Picture Recognition Sensitivity Index, LS mean difference vs placebo (ITT, 1 g, Day 28 at AM 2, p=0.017): statistically significant decrease | Picture Recognition Sensitivity Index, LS mean difference vs placebo (ITT, 1 g, Day 28 at PM 2, p=0.040): statistically significant decrease | Immediate Word Recall Accuracy, LS mean difference vs placebo (ITT, 1 g, at AM 1, p=0.040): statistically significant decreases | Quality of Episodic Secondary Memory, LS mean difference vs placebo (ITT, 1 g, p=0.040): statistically significant decreases | Immediate Word Recall Accuracy, LS mean difference vs placebo (ITT, 2 g, Day 28, p=0.017): statistically significant decreases | Self-Rated Alertness, LS mean difference vs placebo (ITT, 2 g, Day 28, p=0.047): statistically significant decrease in ratings | Immediate Word Recall Accuracy, LS mean difference vs placebo (ITT, 2 g, Day 28 at AM 1, p=0.006): statistically significant decreases | Self-Rated Alertness, LS mean difference vs placebo (ITT, 2 g, Day 28 at AM 2, p=0.041): statistically significant decrease in ratings | Immediate Word Recall Accuracy, LS mean difference vs placebo (ITT, 2 g, at AM 1, p=0.028): statistically significant decreases | Quality of Episodic Secondary Memory, LS mean difference vs placebo (ITT, 2 g, p=0.035): statistically significant decreases | Spatial Working Memory Speed, LS mean difference vs placebo (ITT, 4 g, Day 14 at PM 1, p=0.048): statistically significant benefit | Word Recognition Sensitivity Index, LS mean difference vs placebo (ITT, 4 g, Day 28 at PM 2, p=0.030): statistically significant decrease | Word Recognition Sensitivity Index, LS mean difference vs placebo (ITT, 4 g, Day 42, p=0.038): statistically significant decreases | Spatial Working Memory Speed, LS mean difference vs placebo (ITT, 4 g, Day 42 at AM 1, p=0.061): trend for a benefit | Word Recognition Sensitivity Index, LS mean difference vs placebo (ITT, 4 g, at PM 2, p=0.045): statistically significant decrease | Power of Attention, LS mean difference active treatment vs placebo (ITT, any time-point): no LS mean difference | Self-Rated Contentment, ANCOVA (ITT): statistically significant treatment by day interaction | Choice Reaction Time, ANCOVA (ITT, p=0.011): statistically significant treatment by day interaction | Spatial Working Memory Sensitivity Index, ANCOVA (ITT, p=0.015): statistically significant treatment by day interaction | Quality of Working Memory, ANCOVA (ITT, p=0.019): statistically significant treatment by day interaction | Numeric Working Memory Sensitivity Index, ANCOVA (ITT, p=0.089): statistical trend for a treatment by day interaction | Continuity of Attention, effect of treatment (Study Per Protocol): no statistically significant effect of treatment | Digit Vigilance Targets Detected, ANCOVA (Study Per Protocol, p=0.040): statistically significant treatment by time-point interaction | Immediate and Delayed Word Recall Accuracies, Word and Picture Recognition Sensitivity Indices, effect of treatment (Study Per-Protocol): no statistically significant effects of treatment | Power of Attention, effect of treatment (Study Per-Protocol): no statistically significant effect of treatment | Quality of Episodic Secondary Memory, effect of treatment (Study Per-Protocol): no statistically significant effects of treatment | Self-Rated Alertness, effect of treatment (Study Per-Protocol): no statistically significant effect of treatment | Self-Rated Calmness, effect of treatment (Study Per-Protocol): no statistically significant effect of treatment | Self-Rated Contentment, LS mean difference to placebo (Study Per-Protocol): no statistically significant effects | Simple Reaction Time and Digit Vigilance Speed, effect of treatment (Study Per-Protocol): no statistically significant effects of treatment | Speed of Memory and subtasks Spatial and Numeric Working Memory Speed, Word and Picture Recognition Speed, effect of treatment (Study Per-Protocol): no statistical significant effects of treatment | Immediate Word Recall Accuracy, LS mean difference to placebo (Study Per-Protocol, 1 g, Day 14, p=0.024): statistically significant decreases | Immediate Word Recall Accuracy, LS mean difference to placebo (Study Per-Protocol, 1 g, Day 14 at PM 2, p=0.019): statistically significant decreases | Word Recognition Sensitivity Index, LS mean difference to placebo (Study Per-Protocol, 1 g, Day 28, p=0.027): statistically significant decreases | Picture Recognition Sensitivity Index, LS mean difference vs placebo (Study Per-Protocol, 1 g, Day 28 at AM 2, p=0.020): statistically significant decreases | Picture Recognition Sensitivity Index, LS mean difference vs placebo (Study Per-Protocol, 1 g, Day 28 at PM 2, p=0.026): statistically significant decreases | Immediate Word Recall Accuracy, LS mean difference to placebo (Study Per-Protocol, 1 g, at AM 1, p=0.038): statistically significant decreases | Immediate Word Recall Accuracy, LS mean difference to placebo (Study Per-Protocol, 1 g, at AM 2, p=0.048): statistically significant decreases | Quality of Episodic Secondary Memory, LS mean difference vs placebo (Study Per-Protocol, 1 g, p=0.043): statistically significant decreases | Immediate Word Recall Accuracy, LS mean difference to placebo (Study Per-Protocol, 2 g, Day 28, p=0.017): statistically significant decreases | Self-Rated Alertness, LS mean difference vs placebo (Study Per-Protocol, 2 g, Day 28, p=0.035): statistically significant decrease in ratings | Immediate Word Recall Accuracy, LS mean difference to placebo (Study Per-Protocol, 2 g, Day 28 at AM 1, p=0.006): statistically significant decreases | Self-Rated Alertness, LS mean difference vs placebo (Study Per-Protocol, 2 g, Day 28 at AM 2, p=0.033): statistically significant decrease in ratings | Immediate Word Recall Accuracy, LS mean difference to placebo (Study Per-Protocol, 2 g, at AM 1, p=0.029): statistically significant decreases | Quality of Episodic Secondary Memory, LS mean difference vs placebo (Study Per-Protocol, 2 g, p=0.036): statistically significant decreases | Word Recognition Sensitivity Index, LS mean difference to placebo (Study Per-Protocol, 4 g, Day 42, p=0.038): statistically significant decreases | Self-Rated Calmness, LS mean difference vs placebo (Study Per-Protocol, 4 g, Day 42 at PM 1, p=0.071): statistical trend for an increase in ratings | Power of Attention, difference active treatment vs placebo (Study Per-Protocol, any time-point): no difference between active treatment and placebo | Self-Rated Contentment, ANCOVA (Study Per-Protocol): statistically significant treatment by day interaction | Choice Reaction Time, ANCOVA (Study Per-Protocol, p=0.013): statistically significant treatment by day interaction | Spatial Working Memory Sensitivity Index, ANCOVA (Study Per-Protocol, p=0.014): statistically significant treatment by day interaction | Quality of Working Memory, ANCOVA (Study Per-Protocol, p=0.021): statistically significant treatment by day interaction | Continuity of Attention, post-hoc vs corresponding placebo (post-hoc): no general pattern of effects | Quality of Working Memory and Numeric Working Memory Sensitivity Index, post-hoc vs corresponding placebo (post-hoc): only isolated improvements and declines in performance | Self-Rated Calmness, post-hoc vs corresponding placebo (post-hoc): no differences between active treatment and placebo | Self-rated Alertness and Self-rated Contentment, post-hoc vs corresponding placebo (post-hoc, 1 g, Days 14 and 28): decreases in ratings | Choice Reaction Time, post-hoc vs corresponding placebo (post-hoc, 4 g, Day 42): superior to placebo at every time point | Power of Attention, post-hoc vs corresponding placebo (post-hoc, 4 g, Day 42): overall benefit versus the corresponding placebo | Spatial Working Memory Sensitivity Index, post-hoc vs corresponding placebo (post-hoc, 4 g, Day 42, Study PP Population): overall benefit | Simple Reaction Time, post-hoc vs corresponding placebo (post-hoc, 4 g, PM 2 collapsed across days, several time-points Days 14 and 42): improvements in performance | Choice Reaction Time, post-hoc vs corresponding placebo (post-hoc, 4 g, all study days): overall benefit versus corresponding placebo | Quality of Episodic Secondary Memory and contributing subtasks, post-hoc vs corresponding placebo (post-hoc, explained by pre-existing group differences): a number of decreases | Speed of Memory subtask measures, post-hoc vs corresponding placebo (post-hoc, mostly 1 g): some signs of improvement in performance
